From PubChem BioAssay (NCI)
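Grown in 96-well plates, cells were treated for 48 hours with each compound at five concentrations. Insufficient inhibition: endpoint recorded as highest concentration tested. TGI denotes the concentration required for complete inhibition of growth.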

Columns and labels:
Experiment in all cases: growth of human tumour cells (NCI), 48 h
[1] = test system: NCI-H23 lung
[2] = test system: K-562 leukemia
[3] = test system: SK-MEL-28 melanoma
[4] = test system: COLO 205 colon
[5] = test system: UACC-62 melanoma
[6] = test system: SNB-19 CNS
[7] = test system: SF-295 CNS
[8] = test system: NCI-H460 lung
[9] = test system: HCT-15 colon
[10] = test system: PC-3 prostate
[11] = test system: SW-620 colon
[12] = test system: UO-31 renal
[13] = test system: NCI/ADR-RES ovarian
[14] = test system: OVCAR-8 ovarian
[15] = test system: A549 NSCLC
[16] = test system: MDA-N
[17] = test system: SF-539 CNS
[18] = test system: MDA-MB-435
[19] = test system: HS 578T breast
[20] = test system: M14 melanoma
[21] = test system: ACHN renal
[22] = test system: UACC-257 melanoma
[23] = test system: 786-0 renal
[24] = test system: MDA-MB-231 breast
[25] = test system: SN12C renal
[26] = test system: OVCAR-5 ovarian
[27] = test system: HCT-116 colon
[28] = test system: SK-OV-3 ovarian
[29] = test system: SK-MEL-5 melanoma
[30] = test system: CAKI-1 renal
[31] = test system: MCF7 breast
[32] = test system: HOP-62 NSCLC
[33] = test system: RXF 393 renal
[34] = test system: TK-10 renal
[35] = test system: U251 CNS
[36] = test system: CCRF-CEM leukemia
[37] = test system: OVCAR-4 ovarian
[38] = test system: RPMI-8226 leukemia
[39] = test system: HL-60(TB) leukemia
[40] = test system: NCI-H522 lung
[41] = test system: EKVX NSCLC
[42] = test system: NCI-H226 lung
[43] = test system: KM12 colon
[44] = test system: IGROV1 ovarian
[45] = test system: MALME-3M melanoma
[46] = test system: HT29 colon
[47] = test system: MOLT-4 leukemia
[48] = test system: DU-145 prostate
[49] = test system: LOX IMVI melanoma
[50] = test system: SNB-75 CNS
[51] = test system: T-47D breast
[52] = test system: OVCAR-3 ovarian
[53] = test system: SR leukemia
[54] = test system: SF-268 CNS

## O=C(CBr)N1CCC2(CC1)SSC1(CCN(C(=O)CBr)CC1)S2
[1]
  TGI: 3.13 µM
[2]
  TGI: > 100 µM
[3]
  TGI: 4.55 µM
[4]
  TGI: 1.13 µM
[5]
  TGI: 2.96 µM
[6]
  TGI: 3.48 µM
[7]
  TGI: 3.51 µM
[8]
  TGI: 3.48 µM
[9]
  TGI: 2.96 µM
[10]
  TGI: 3.38 µM
[11]
  TGI: 1.21 µM
[12]
  TGI: 2.01 µM
[13]
  TGI: 4.32 µM
[14]
  TGI: 4.62 µM
[15]
  TGI: 3.95 µM
[16]
  TGI: 2.81 µM
[17]
  TGI: 3.09 µM
[18]
  TGI: 4.48 µM
[19]
  TGI: 4.29 µM
[20]
  TGI: 2.86 µM
[21]
  TGI: 2.87 µM
[22]
  TGI: 12.9 µM
[23]
  TGI: 1.81 µM
[24]
  TGI: 4.57 µM
[25]
  TGI: 3.71 µM
[26]
  TGI: 3.03 µM
[27]
  TGI: 1.29 µM
[28]
  TGI: 2.71 µM

## O=c1[nH]c(=O)n(C2CC(O)C(CO)O2)cc1NN=NCCc1ccccc1 (stereo not given)
[29]
  TGI: > 100 µM
[30]
  TGI: > 100 µM
[31]
  TGI: > 100 µM
[1]
  TGI: > 100 µM
[32]
  TGI: > 100 µM
[33]
  TGI: > 100 µM
[2]
  TGI: > 100 µM
[34]
  TGI: > 100 µM
[3]
  TGI: > 100 µM
[35]
  TGI: > 100 µM
[4]
  TGI: > 100 µM
[5]
  TGI: > 100 µM
[6]
  TGI: > 100 µM
[36]
  TGI: > 100 µM
[37]
  TGI: > 100 µM
[7]
  TGI: > 100 µM
[8]
  TGI: > 100 µM
[9]
  TGI: > 100 µM
[10]
  TGI: > 100 µM
[38]
  TGI: > 100 µM
[39]
  TGI: > 100 µM
[12]
  TGI: > 100 µM
[40]
  TGI: > 100 µM
[13]
  TGI: > 100 µM
[41]
  TGI: > 100 µM
[14]
  TGI: > 100 µM
[15]
  TGI: > 100 µM
[42]
  TGI: > 100 µM
[16]
  TGI: > 100 µM
[43]
  TGI: > 100 µM
[44]
  TGI: > 100 µM
[18]
  TGI: > 100 µM
[45]
  TGI: > 100 µM
[46]
  TGI: > 100 µM
[47]
  TGI: > 100 µM
[48]
  TGI: > 100 µM
[49]
  TGI: > 100 µM
[19]
  TGI: > 100 µM
[50]
  TGI: > 100 µM
[20]
  TGI: > 100 µM
[51]
  TGI: > 100 µM
[52]
  TGI: > 100 µM
[21]
  TGI: > 100 µM
[53]
  TGI: > 100 µM
[22]
  TGI: > 100 µM
[23]
  TGI: > 100 µM
[24]
  TGI: > 100 µM
[25]
  TGI: > 100 µM
[26]
  TGI: > 100 µM
[27]
  TGI: > 100 µM
[54]
  TGI: > 100 µM
[28]
  TGI: > 100 µM
